# Measurements taken from ChEMBL document CHEMBL1149750, “Drimane Sesquiterpene Lactones from Peniophora polygonia” (J Nat Prod, 1992).
# The source made the active and inactive calls. The rule behind the calls is not given here.
# Tested on: Phellinus tremulae
# Assay: Antifungal activity against Phellinus tremulae
# Format: functional, organism-based
structure (smiles),measurement,value
CC1(C)CCC[C@]2(C)[C@H]3COC(=O)[C@@]3(O)CC[C@@H]12,Activity,Active
